Experimental data as given in patent US12521439B2, “Methods and materials for modulating Nrf2 pathway” (The General Hospital Corporation, priority 2019, dated 2026).

Columns and labels:
[1] = tested on: patient-derived GBM8 GSC tumors; test: FDG-PET imaging of orthotopic GSC brain tumors; type: in vivo, mice; conditions: 3 doses of 10 mg/kg within 24 h, imaged 4 h after last dose; tumor to muscle ratio
From the text: In vivo Tumor Models: Animal experiments performed by our laboratory were approved by the Massachusetts General Hospital Subcommittee on Research Animal Care. Female athymic nude mice (6-8 weeks) were used in all studies with the exception of pharmacokinetics analysis. For brain tumors xenograft model, GBM8 cells (1×10^5 cells/mouse) stably expressing Fluc were stereotactically implanted into the left striatum of animals. Following implantation, animals were regularly imaged for Fluc to monitor brain tumor growth. To generate the breast cancer model, MDA-MB-231 cells (2.5×10^5 cells/mouse) expressing Fluc were mixed with Matrigel 1:1 (v/v) (BD Matrigel) and injected into the mammary fat pad of mice. Tris-OBT was dissolved in PBS and administered intraperitoneally. Tumor volumes were measured using a caliper and calculated according to the following formula: volume=(width)^2×length/2. […]
FDG-PET imaging: Mouse PET/CT scans (n=6, 3 per group) were performed sequentially using a custom-designed mouse bed and PET/CT gantry adapter. […] The same ROIs are then copied to the matching PET images for quantification of the ^18F-FDG PET signal as the standard uptake values (SUVs). […]

bovine catalase = molecular target: T1, bovine catalase (Bos taurus, UniProt P00432); test: Differential alkylation mass spectrometry, catalase; type: binding
T1 construct: purchased Sigma-Aldrich
T1 sequence (P00432 1-527): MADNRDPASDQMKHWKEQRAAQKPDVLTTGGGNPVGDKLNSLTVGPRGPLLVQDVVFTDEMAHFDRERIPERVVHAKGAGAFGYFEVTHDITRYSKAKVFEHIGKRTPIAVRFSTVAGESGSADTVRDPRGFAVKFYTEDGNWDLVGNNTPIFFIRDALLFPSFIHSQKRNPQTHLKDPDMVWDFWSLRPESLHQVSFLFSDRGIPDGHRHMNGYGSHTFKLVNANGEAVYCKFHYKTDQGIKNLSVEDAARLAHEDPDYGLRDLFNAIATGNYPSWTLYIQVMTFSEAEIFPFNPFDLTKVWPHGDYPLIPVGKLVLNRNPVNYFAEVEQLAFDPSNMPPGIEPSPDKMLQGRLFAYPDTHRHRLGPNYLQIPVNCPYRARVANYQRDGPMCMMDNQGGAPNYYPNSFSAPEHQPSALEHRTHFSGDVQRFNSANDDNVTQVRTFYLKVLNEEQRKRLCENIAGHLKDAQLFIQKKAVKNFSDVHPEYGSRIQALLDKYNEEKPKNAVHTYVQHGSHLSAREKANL
Protocol: Differential Alkylation for OBT Binding Characterization: 10 μg of bovine catalase (Sigma-Aldrich) were suspended in 100 μl of 50 mM HEPES (pH 8.5)/0.5% SDS and OBT, iodoacetamide (IAA), or N-ethylmaleimide (NEM) was added to a final concentration of 5 mM and the mixtures were incubated for 30 min at RT in the dark before adding IAA to all three reactions to a final concentration of 10 mM in the sample treated with IAA in the first alkylation step, and of 5 mM in the other two samples. Upon incubation at RT for 30 min in the dark dithiothreitol (DTT) was added to all reaction to a final concentration of 20 mM and the reactions were first incubated at RT in the dark for 15 min and then at 56° C. for 30 min. Then, NEM was added to all reactions to a final concentration of 100 mM followed by incubation at RT in the dark for 30 min. The experiments were done in triplicate. Samples were analyzed by mass spectrometry as described below.
Quantitative Proteomics: Cell pellets were lysed in a buffer of 75 mM NaCl, 50 mM HEPES pH 8.5, 10 mM sodium pyrophosphate, 10 mM sodium fluoride, 10 mM β-glycerophosphate, 10 mM sodium orthovanadate, 10 mM PMSF, Roche complete mini EDTA free protease inhibitors (1 tablet per 20 ml), and 3% SDS. Lysis was achieved by passing the suspension through a 21-gauge needle 20 times. Proteins were prepared for proteomics analysis as described previously. […] Twelve fractions were analyzed by multiplexed quantitative proteomics performed on an Orbitrap Fusion mass spectrometer (Thermo Scientifc) using a Simultaneous Precursor Selection (SPS) based MS3 method. […] For the cell line samples only MS3 with an average signal-to-noise value of larger than 40 per reporter ion as well as with an isolation specificity of larger than 0.75 were considered for quantification. […] A two-step normalization of the protein TMT-intensities was performed by first normalizing the protein intensities over all acquired TMT channels for each protein based on the median average protein intensity calculated for all proteins. […]

[2] = 2-fold excess of DTT over alkylating reagents

binding type at Cys-232 and Cys-460 (bovine catalase; [2]): tight or irreversible binding | binding type at Cys-377 (bovine catalase; [2]): reversible binding
Compound: COC1=CC(=O)C(O)=C/C1=C/C=C/c1ccccc1 [OBT, (Z)-2-hydroxy-5-methoxy-4-((E)-3-phenylallylidene)cyclohexa-2,5-dien-1-one]
decrease in FDG tumor uptake [1]: ~50% | binding to cysteine residues of bovine catalase (bovine catalase; 5 mM OBT, differential alkylation): binds to all detected peptides with cysteine residues
